Assay results from patent US20140314780A1, “Compositions Using Antibodies Directed to GPNMB and Uses Thereof” (Celldex Therapeutics, Inc., priority 2008, published 2014).
Entries after “also recorded” stand apart in the source; their conditions may differ.

What was measured:
Format in all cases: cell-based, human
[1] = tested on: GPNMB surface expression on SF539 glioblastoma cells; assay: Flow cytometry of GPNMB surface expression, SF539 cells; settings: SF549, CR011 (anti-GPNMB) primary antibody
Experimental: (§1) Cells were seeded in 6-well tissue culture dishes at a subconfluent density and allowed to attach overnight. The following day, cells were treated as indicated in the figures/legends, harvested with versene (Invitrogen), washed with PBS and incubated with primary antibody (10 μg/mL) diluted in staining buffer (PBS pH 7.4, 4% FBS, 0.1% sodium azide) for 30 minutes on ice. […] After incubation with primary antibody, samples were washed with staining buffer and then incubated with secondary antibody (PE-conjugated anti-human antibody; 1:100) for 30 minutes on ice. After incubation, samples were washed with staining buffer and examined on a Becton Dickinson FACSCalibur flow cytometer (BD Immunocytometry Systems, San Jose, Calif.). Data analysis was performed with Becton Dickinson Cell Quest software and the geometric mean fluorescence intensity (GeoMean) was determined for each sample.
(§2) For the data shown in Table 37, flow cytometry was performed on intact, non-permeabilized cells using the indicated primary monoclonal antibodies. […] The results are reported as GeoMeans. […] For the data shown in the bottom left panel of Table 37, SKMEL2 (melanoma) cells were treated with MEKi (U0126; 10 uM), imatinib (20 uM), p38i (p38 MAPKi SB202190; 50 uM), NH4Cl (ammonium chloride; 20 mM) or CLQ (chloroquine; 20 uM) for 48 hours prior to analysis. For the data shown in the bottom right panel of Table 37, WM2664 (melanoma) cells were treated with MON (monensin) or MMPi (GM6001) for 48 hours prior to analysis.

[2] = tested on: GPNMB; assay: Immunoblotting for GPNMB on whole-cell lysates of cancer cell lines after drug exposure; settings: for increase of GPNMB expression in the screen: determined by immunoblotting and/or flow cytometry analysis; for GPNMB expressed after protein synthesis inhibition: 1 hour, absence of ammonium chloride (FIG. 6D)
Source text: Cancer cell lines were of human origin and were obtained from the American Type Culture Collection (Manassas, Va.) and from the National Cancer Institute (Bethesda, Md.) and cultured in RPMI-1640 supplemented with 10% FBS (growth media). Sources of reagents were as follows: RAFKi (553013), MEKi (U0126), MEKi (PD98059), MEKi (444939), ERKi (FR180204), p38 MAPKi (SB202190), p38 MAPKi (SB203580), aurora kinase inhibitor (189404), JNK inhibitor (420119), MMPi (GM6001) were from EMD Chemicals (San Diego, Calif.). ERKi (A6355), RAFKi: (GW5074), ammonium chloride (NH4Cl), chloroquine, monensin, cyclohexamide and emetine were from Sigma (Saint Louis, Mo.). HSP90i (geldanamycin) was from AG Scientific (San Diego, Calif.) and imatinib (Gleevec) was purchased from a pharmacy.
Cells were seeded in 6-well tissue culture dishes at a subconfluent density and allowed to attach overnight. For harvesting cell lysates, media was removed, cells were briefly washed with serum-free media and then 1× Tris-glycine SDS sample buffer (Invitrogen, Carlsbad, Calif.) supplemented with 10 mM dithiothreitol (Sigma) was added directly to the wells. Cell lysates were then collected and boiled for 10 minutes. For preparing conditioned media, drug treatments were performed in a minimum volume of growth media (1.5 mL/well). Following 48 hours of incubation, conditioned media was collected, briefly microfuged, mixed with an equal volume of 2× Tris-glycine SDS sample buffer (Invitrogen, Carlsbad, Calif.) supplemented with 20 mM dithiothreitol (Sigma) and boiled for 10 minutes. For cell lysates, samples were quantified and an equal quantity of protein/lane was resolved on 4-20% gradient polyacrylamide gels (Invitrogen) and then transferred to nitrocellulose filters (Invitrogen). The volume of conditioned media loaded/lane was adjusted based on the protein concentration determined in the respective cell lysates. Immunoblotting was performed using standard procedures and the following primary antibodies: MARTI (sc-20032), TYRP2 (sc-25544), TYRP1 (sc-25543), PMEL17 (sc-15010), MAGEA1 (sc-20033), MCSP (sc-20162), MTf (sc-26651), MCAM (sc-18942), pp-ERK (sc-7976) and ERK (sc-94) (preceding antibodies were purchased from Santa Cruz Biotechnologies, Santa Cruz, Calif.), GPNMB (AF2550; R & D Systems, Minneapolis Minn.), actin (A5060; Sigma). Following incubation with the appropriate horseradish peroxidase-conjugated secondary antibodies, enhanced chemiluminescence (GE Healthcare, Chalfont St. Giles, United Kingdom) was used for detection.

[3] = tested on: GPNMB surface expression on A375 melanoma cells; assay: Flow cytometry of GPNMB surface expression, A375 cells; settings: for GPNMB surface expression, flow cytometry GeoMean: A375, CR011 (anti-GPNMB) primary antibody
Experimental: as §1, §2

[4] = tested on: phospho-ERK (pp-ERK); assay: Immunoblotting for phospho-ERK (level of ERK activation)
Source text: In the experiment presented in FIG. 2A, potential inhibition of the ERK pathway was investigated by immunoblotting for phospho-ERK (pp-ERK), which represents the active form of this signaling molecule.

[5] = tested on: UACC62 melanoma cells; assay: In vitro growth-inhibition/cytotoxicity assay, UACC62 cells; settings: 0.16 μg/mL, 72 hours, trypan blue
[6] = tested on: GPNMB surface expression on SKMEL2 melanoma cells; assay: Flow cytometry of GPNMB surface expression, SKMEL2 cells; settings: for GPNMB surface expression, flow cytometry GeoMean: SKMEL2, CR011 (anti-GPNMB) primary antibody, MEKi (U0126) 10 uM, imatinib 20 uM, p38i (SB202190) 50 uM; for GPNMB surface-expression: SKMEL2 cells, 48 hours (Table 37, bottom left)
Experimental: as §1
For the data shown in Table 37, flow cytometry was performed on intact, non-permeabilized cells using the indicated primary monoclonal antibodies. […] The results are reported as GeoMeans. For the data shown in the top panel of Table 37, A375 (melanoma) or SF539 (glioblastoma) cells were treated with the indicated concentrations of MEKi (U0126), RAFKi (553013) or ERKi (FR180204) for 12, 24 or 48 hours prior to analysis. For the data shown in the bottom left panel of Table 37, SKMEL2 (melanoma) cells were treated with MEKi (U0126; 10 uM), imatinib (20 uM), p38i (p38 MAPKi SB202190; 50 uM), NH4Cl (ammonium chloride; 20 mM) or CLQ (chloroquine; 20 uM) for 48 hours prior to analysis. For the data shown in the bottom right panel of Table 37, WM2664 (melanoma) cells were treated with MON (monensin) or MMPi (GM6001) for 48 hours prior to analysis.

[7] = melanoma lines SKMEL2, A375, WM2664, MEWO, 48 hours (FIG. 6A)

Question: With `Nc1n[nH]c2nnc(-c3c(-c4ccccc4)nn4ccccc34)cc12` [FR180204, 5-(2-phenylpyrazolo[1,5-a]pyridin-3-yl)-1H-pyrazolo[3,4-c]pyridazin-3-amine] as the compound, how does the “GPNMB surface expression, flow cytometry GeoMean” value ([1]; ERKi (FR180204) 3.1 uM, 12 h) read?
Answer: 32.6

Question: And the “GPNMB surface expression, flow cytometry GeoMean” value ([1]; ERKi (FR180204) 3.1 uM, 24 h)?
Answer: 33.7

Question: And the “GPNMB surface expression, flow cytometry GeoMean” value ([1]; ERKi (FR180204) 3.1 uM, 48 h)?
Answer: 32.6

Question: And the “GPNMB surface expression, flow cytometry GeoMean” value ([1]; ERKi (FR180204) 50 um, 12 h)?
Answer: 31.3

Question: What about the “GPNMB surface expression, flow cytometry GeoMean” value ([1]; ERKi (FR180204) 50 um, 24 h) of the same compound?
Answer: 30.7

Question: And the “GPNMB surface expression, flow cytometry GeoMean” value ([1]; ERKi (FR180204) 50 um, 48 h)?
Answer: 30.6

Question: What about the “GPNMB induction (immunoblotting)” value ([2]; A375 cells, only following an exposure time of 48 hours (FIG. 3B, bottom)) of the same compound?
Answer: strong induction

Question: And the “GPNMB induction (immunoblotting)” value ([2]; SKMEL2 or SF539 cells (FIG. 3B, bottom))?
Answer: Little or no GPNMB induction

Question: And the “GPNMB surface expression, flow cytometry GeoMean” value ([3]; ERKi (FR180204) 3.1 uM, 12 h)?
Answer: 13.0

Question: And the “GPNMB surface expression, flow cytometry GeoMean” value ([3]; ERKi (FR180204) 3.1 uM, 24 h)?
Answer: 13.5

Question: What about the “GPNMB surface expression, flow cytometry GeoMean” value ([3]; ERKi (FR180204) 3.1 uM, 48 h) of the same compound?
Answer: 13.1

Question: What about the “GPNMB surface expression, flow cytometry GeoMean” value ([3]; ERKi (FR180204) 50 um, 12 h) of the same compound?
Answer: 13.0

Question: What about the “GPNMB surface expression, flow cytometry GeoMean” value ([3]; ERKi (FR180204) 50 um, 24 h) of the same compound?
Answer: 14.9

Question: What about the “GPNMB surface expression, flow cytometry GeoMean” value ([3]; ERKi (FR180204) 50 um, 48 h) of the same compound?
Answer: 50.3

Question: What about the GPNMB surface expression ([3]; A375 melanoma, 12, 24 or 48 hours (Table 37, top)) of the same compound?
Answer: induced GPNMB surface expression

Question: What about the “inhibition of the ERK pathway (phospho-ERK levels)” value ([4]; FIG. 3B bottom, A375, SKMEL2, SF539) of the same compound?
Answer: relatively weak inhibition

Question: With “CR011-vcMMAE: antibody-drug conjugate of anti-GPNMB antibody CR011 with Auristatin E (vcMMAE) through a protease-cleavable linker” as the compound, how does the growth-inhibition ([5]; UACC62 cells not pretreated with the MEK inhibitor) read?
Answer: little growth-inhibition

Question: What about the growth-inhibition ([5]; UACC62 cells pretreated with the MEK inhibitor (U0126 1 μM, 48 hours)) of the same compound?
Answer: strong growth-inhibition

Question: Which “GPNMB surface expression, flow cytometry GeoMean” value [6] does the source give for `Oc1ccc(-c2nc(-c3ccc(F)cc3)c(-c3ccncc3)[nH]2)cc1` [SB202190, 4-[4-(4-Fluorophenyl)-5-(4-pyridinyl)-1H-imidazol-2-yl]phenol] here?
Answer: 85.1

Question: `O=C(/C=C/c1cccc(S(=O)(=O)Nc2ccccc2)c1)NO` [belinostat] was tested. Which “increase of GPNMB expression in the screen” value (from here on “increase of GPNMB expression”) [2] did it give?
Answer: ineffective

Question: For `N.N.[Cl][Pt][Cl]` [cisplatin], which “increase of GPNMB expression” value [2] is on record?
Answer: ineffective

Question: `Nc1ncn([C@@H]2O[C@H](CO)[C@@H](O)[C@H]2O)c(=O)n1` [Mab 5-AZA] was tested. Which “increase of GPNMB expression” value [2] did it give?
Answer: ineffective

Question: For `Cc1ccc(NC(=O)c2ccc(CN3CCN(C)CC3)cc2)cc1Nc1nccc(-c2cccnc2)n1` [imatinib], which “GPNMB expression (immunoblotting)” value [2, 7] is on record?
Answer: induced

Question: What about the “GPNMB expression (immunoblotting)” value ([2]; variety of melanoma and glioblastoma cell lines, 48 hours (FIG. 6B, 6C)) of the same compound?
Answer: strongly induced; also recorded: robust GPNMB expression

Question: And the phospho-ERK ([4]; melanoma and glioblastoma cell lines, imatinib 20 μM, 48 hours (FIG. 6B))?
Answer: without inhibiting phospho-ERK

Question: And the “GPNMB surface expression, flow cytometry GeoMean” value [6]?
Answer: 103.7

Question: And the GPNMB surface-expression [6]?
Answer: increase GPNMB surface-expression

Question: What does the source list for `Cl.N` [ammonium chloride]?
Answer: GPNMB induction compared with MTf and MCAM ([2]; NH4Cl 20 mM, 48 hours (FIG. 6E)): more highly induced; GPNMB detection with protein synthesis inhibitor ([2]; ammonium chloride (50 mM) along with protein synthesis inhibitor, 1 hour (FIG. 6D)): readily detectable; GPNMB expression (immunoblotting) [2, 7]: induced; GPNMB surface expression, flow cytometry GeoMean [6]: 93.8; GPNMB surface-expression [6]: increase GPNMB surface-expression

Question: IFNα was tested. Which “increase of GPNMB expression” value [2] did it give?
Answer: ineffective

Question: `CC[C@H]1CN2CCc3cc(OC)c(OC)cc3[C@@H]2C[C@@H]1C[C@H]1NCCc2cc(OC)c(OC)cc21` [emetine] was tested. Which “GPNMB expressed after protein synthesis inhibition” value [2] did it give?
Answer: little or no GPNMB

Question: For `O=c1cc(N2CCOCC2)oc2c(-c3ccccc3)cccc12` [LY94002], which “increase of GPNMB expression” value [2] is on record?
Answer: ineffective

Question: Which “increase of GPNMB expression” value [2] does the source give for `O=NN(CCCl)C(=O)NCCCl` [carmustine] here?
Answer: ineffective

Question: Which “increase of GPNMB expression” value [2] does the source give for `Cc1ccc2nc(NCCN)c3ncc(C)n3c2c1` [BMS345541] here?
Answer: ineffective

Question: Which “increase of GPNMB expression” value [2] does the source give for `CC(C)C[C@H](NC(=O)[C@H](Cc1ccccc1)NC(=O)c1cnccn1)B(O)O` [bortezomib] here?
Answer: ineffective

Question: `C[C@@H]1C[C@@H]([C@H](O)CC2CC(=O)NC(=O)C2)C(=O)[C@@H](C)C1` [cyclohexamide] was tested. Which “GPNMB expressed after protein synthesis inhibition” value [2] did it give?
Answer: little or no GPNMB

Question: “IFNγ: IFNγ, compound examined in the screen” was tested. Which “increase of GPNMB expression” value [2] did it give?
Answer: ineffective

Question: How did the “GPNMB expression (immunoblotting)” value [2, 7] turn out when `CCN(CC)CCCC(C)Nc1ccnc2cc(Cl)ccc12` (centres unmarked) [chloroquine] was run?
Answer: induced

Question: And the “GPNMB surface expression, flow cytometry GeoMean” value [6]?
Answer: 91.2

Question: What about the GPNMB surface-expression [6] of the same compound?
Answer: increase GPNMB surface-expression

Question: How did the “increase of GPNMB expression” value [2] turn out when `CC(=O)O[C@H]1C(=O)[C@@]2(C)[C@H]([C@H](OC(=O)c3ccccc3)[C@]3(O)C[C@H](OC(=O)[C@H](O)[C@@H](NC(=O)c4ccccc4)c4ccccc4)C(C)=C1C3(C)C)[C@]1(OC(C)=O)CO[C@@H]1C[C@@H]2O` [paclitaxel] was run?
Answer: ineffective
